Assay results from EP1161438B1, “6-O-SUBSTITUTED MACROLIDES HAVING ANTIBACTERIAL ACTIVITY” (ABBOTT LABORATORIES, priority 1999, dated 2000).
Values after ≈ are worked out from the molar mass of the structure shown.

What was measured:
Assay in all cases: Agar dilution antibacterial MIC assay
Assay type in all cases: cell-based
Candida albicans CCH 442 = settings: organism code TT, BHI agar, 35-37 °C, 20 to 24 hours, unit assumed
Procedure: (§1) Representative compounds of the present invention were assayed in vitro for antibacterial activity as follows: Twelve petri dishes containing successive aqueous dilutions of the test compound mixed with 10 mL of sterilized Brain Heart Infusion (BHI) agar (Difco 0418-01-5) were prepared. Each plate was inoculated with 1:100 (or 1:10 for slow-growing strains, such as Micrococcus and Streptococcus) dilutions of up to 32 different microorganisms, using a Steers replicator block. […] In addition, a control plate, using BHI agar containing no test compound, was prepared and incubated at the beginning and end of each test.
(§2) An additional plate containing a compound having known susceptibility patterns for the organisms being tested and belonging to the same antibiotic class as the test compound was also prepared and incubated as a further control, as well as to provide test-to-test comparability.
(§3) After incubation, each plate was visually inspected. The minimum inhibitory concentration (MIC) was defined as the lowest concentration of drug yielding no growth, a slight haze, or sparsely isolated colonies on the inoculum spot as compared to the growth control.

[1] = system: Enterococcus faecium ATCC 8043; settings: organism code II, BHI agar, 35-37 °C, 20 to 24 hours, unit assumed
Procedure: as §1, §2, §3

Escherichia coli DC-2 = settings: organism code SS, BHI agar, 35-37 °C, 20 to 24 hours, unit assumed
Procedure: as §1, §2, §3

Escherichia coli JUHL = settings: organism code QQ, BHI agar, 35-37 °C, 20 to 24 hours, unit assumed
Procedure: as §1, §2, §3

Escherichia coli SS = settings: organism code RR, BHI agar, 35-37 °C, 20 to 24 hours, unit assumed
Procedure: as §1, §2, §3

[2] = system: Haemophilis Influenzae DILL AMP R; settings: organism code WW, BHI agar, 35-37 °C, 20 to 24 hours, unit assumed
Procedure: as §1, §2, §3

[3] = system: Micrococcus luteus ATCC 4698; settings: organism code PP, BHI agar, 35-37 °C, 20 to 24 hours, unit assumed
Procedure: as §1, §2, §3

[4] = system: Micrococcus luteus ATCC 9341; settings: organism code OO, BHI agar, 35-37 °C, 20 to 24 hours, unit assumed
Procedure: as §1, §2, §3

[5] = system: Mycobacterium smegmatis ATCC 114; settings: organism code UU, BHI agar, 35-37 °C, 20 to 24 hours, unit assumed
Procedure: as §1, §2, §3

[6] = system: Nocardia Asteroides ATCC9970; settings: organism code VV, BHI agar, 35-37 °C, 20 to 24 hours, unit assumed
Procedure: as §1, §2, §3

[7] = system: Staphylococcus aureus 1775; settings: organism code GG, BHI agar, 35-37 °C, 20 to 24 hours, unit assumed
Procedure: as §1, §2, §3

[8] = system: Staphylococcus aureus A-5278; settings: organism code CC, BHI agar, 35-37 °C, 20 to 24 hours, unit assumed
Procedure: as §1, §2, §3

[9] = system: Staphylococcus aureus A5177; settings: organism code BB, BHI agar, 35-37 °C, 20 to 24 hours, unit assumed
Procedure: as §1, §2, §3

[10] = system: Staphylococcus aureus ATCC 6538P; settings: organism code AA, BHI agar, 35-37 °C, 20 to 24 hours, unit assumed
Procedure: as §1, §2, §3

[11] = system: Staphylococcus aureus CMX 553; settings: organism code FF, BHI agar, 35-37 °C, 20 to 24 hours, unit assumed
Procedure: as §1, §2, §3

[12] = system: Staphylococcus aureus CMX 642A; settings: organism code DD, BHI agar, 35-37 °C, 20 to 24 hours, unit assumed
Procedure: as §1, §2, §3

[13] = system: Staphylococcus aureus NCTC10649M; settings: organism code EE, BHI agar, 35-37 °C, 20 to 24 hours, unit assumed
Procedure: as §1, §2, §3

[14] = system: Staphylococcus epidermidis 3519; settings: organism code HH, BHI agar, 35-37 °C, 20 to 24 hours, unit assumed
Procedure: as §1, §2, §3

[15] = system: Streptococcus Pneumonia 5649; settings: organism code ZZA, BHI agar, 35-37 °C, 20 to 24 hours, unit assumed
Procedure: as §1, §2, §3

[16] = system: Streptococcus Pneumonia ATCC6303; settings: organism code XX, BHI agar, 35-37 °C, 20 to 24 hours, unit assumed
Procedure: as §1, §2, §3

[17] = system: Streptococcus Pneumonia GYR 1171; settings: organism code YY, BHI agar, 35-37 °C, 20 to 24 hours, unit assumed
Procedure: as §1, §2, §3

[18] = system: Streptococcus agalactiae CMX 508; settings: organism code KK, BHI agar, 35-37 °C, 20 to 24 hours, unit assumed
Procedure: as §1, §2, §3

[19] = system: Streptococcus bovis A-5169; settings: organism code JJ, BHI agar, 35-37 °C, 20 to 24 hours, unit assumed
Procedure: as §1, §2, §3

[20] = system: Streptococcus pyogenes 930; settings: organism code MM, BHI agar, 35-37 °C, 20 to 24 hours, unit assumed
Procedure: as §1, §2, §3

[21] = system: Streptococcus pyogenes EES61; settings: organism code LL, BHI agar, 35-37 °C, 20 to 24 hours, unit assumed
Procedure: as §1, §2, §3

[22] = system: Streptococcus pyogenes PIU 2548; settings: organism code NN, BHI agar, 35-37 °C, 20 to 24 hours, unit assumed
Procedure: as §1, §2, §3

[23] = system: Streptococcus Pneumonia 5979; settings: organism code ZZ, BHI agar, 35-37 °C, 20 to 24 hours, unit assumed
Procedure: as §1, §2, §3

Row | Molecule | MIC (Candida albicans CCH 442) [µg/mL] | MIC (Escherichia coli JUHL) [µg/mL] | MIC (Escherichia coli SS) [µg/mL] | MIC [2] [µg/mL] | MIC [3] [µg/mL] | MIC [5] [µg/mL] | MIC [6] [µg/mL] | MIC [7] [µg/mL] | MIC [8] [µg/mL] | MIC [9] [µg/mL] | MIC [10] [µg/mL] | MIC [14] [µg/mL] | MIC [15] [µg/mL] | MIC [16] [µg/mL] | MIC [17] [µg/mL] | MIC [18] [µg/mL] | MIC [19] [µg/mL] | MIC [20] [µg/mL] | MIC [21] [µg/mL] | MIC [22] [µg/mL] | further results
1 | CC[C@H]1OC(=O)[C@H](C)[C@@H](O[C@H]2C[C@@](C)(OC)[C@@H](O)[C@H](C)O2)[C@H](C)[C@@H](O[C@@H]2O[C@H](C)C[C@H](N(C)C)[C@H]2O)[C@](C)(O)C[C@@H](C)C(=O)[C@H](C)[C@@H](O)[C@]1(C)O [Ery. A standard, Erythromycin A, reference compound] | > 100 | > 100 | 0.78 (≈ 1.06 µM) | 4 (≈ 5.45 µM) | 0.2 (≈ 0.273 µM) | 3.1 (≈ 4.22 µM) | 0.1 (≈ 0.136 µM) | > 100 | > 100 | 3.1 (≈ 4.22 µM) | 0.2 (≈ 0.273 µM) | 0.39 (≈ 0.531 µM) | 16 (≈ 21.8 µM) | 0.06 (≈ 0.0818 µM) | 0.06 (≈ 0.0818 µM) | 0.05 (≈ 0.0681 µM) | 0.02 (≈ 0.0273 µM) | > 100 | 0.05 (≈ 0.0681 µM) | 6.2 (≈ 8.45 µM) | MIC [1]: 0.05 µg/mL (≈ 0.0681 µM); MIC (Escherichia coli DC-2): > 100 µg/mL; MIC [4]: 0.05 µg/mL (≈ 0.0681 µM); MIC [11]: 0.39 µg/mL (≈ 0.531 µM); MIC [12]: 0.39 µg/mL (≈ 0.531 µM); MIC [13]: 0.39 µg/mL (≈ 0.531 µM)
2 | CC[C@H]1OC(=O)[C@H](C)C(=O)[C@H](C)[C@@H](O[C@@H]2O[C@H](C)C[C@H](N(C)C)[C@H]2O)[C@](C)(OCC#Cc2ccc(-c3ccccn3)s2)C[C@@H](C)C(=O)[C@H](C)[C@H]2NC(=O)O[C@@]21C [Example 1, Compound of Formula I: R^b is H, L is -C(O)-, T is -NH-, R is-(CH2)-C≡C-(5-(2-pyridyl)-2-thienyl)] | > 100 | 12.5 | 0.1 | 2 | 0.1 | 0.2 | 0.02 | > 100 | > 100 | 0.05 | 0.05 | 0.1 | 0.25 | 0.03 | 0.03 | 0.02 | 0.01 | 12.5 | 0.02 | 0.1 | MIC [1]: 0.05 µg/mL; MIC (Escherichia coli DC-2): 6.2 µg/mL; MIC [4]: 0.02 µg/mL; MIC [11]: 0.05 µg/mL; MIC [12]: 0.05 µg/mL; MIC [13]: 0.1 µg/mL; MIC [23]: 0.25 µg/mL
3 | CC[C@H]1OC(=O)[C@H](C)C(=O)[C@H](C)[C@@H](O[C@@H]2O[C@H](C)C[C@H](N(C)C)[C@H]2O)[C@](C)(OCC#Cc2ccc(-c3cccnc3)s2)C[C@@H](C)C(=O)[C@H](C)[C@H]2NC(=O)O[C@@]21C [Example 2, Compound of Formula I: R^b is H, L is -C(O)-, T is -NH-, R is-(CH2)-C≡C-(5-(3-pyridyl)-2-thienyl)] | > 100 | 25 | 0.1 | 2 | 0.1 | 0.2 | 0.05 | > 100 | > 100 | 0.05 | 0.05 | 0.05 | 0.12 | 0.03 | 0.03 | ≤ 0.005 | ≤ 0.005 | 3.1 | 0.01 | 0.1 | MIC [1]: 0.05 µg/mL; MIC (Escherichia coli DC-2): 25 µg/mL; MIC [4]: ≤ 0.005 µg/mL; MIC [11]: 0.05 µg/mL; MIC [12]: 0.05 µg/mL; MIC [13]: 0.05 µg/mL; MIC [23]: 0.25 µg/mL
4 | CC[C@H]1OC(=O)[C@H](C)C(=O)[C@H](C)[C@@H](O[C@@H]2O[C@H](C)C[C@H](N(C)C)[C@H]2O)[C@](C)(OCC#Cc2ccc(-c3ccncc3)s2)C[C@@H](C)C(=O)[C@H](C)[C@H]2NC(=O)O[C@@]21C [Example 3, Compound of Formula I: R^b is H, L is -C(O)-, T is -NH-, R is-(CH2)-C≡C-(5-(4-pyridyl)-2-thienyl)] | > 100 | 100 | 0.2 | 2 | 0.05 | 0.039 | 0.01 |  | > 100 | 0.05 | 0.05 | > 100 | 0.125 | ≤ 0.004 | ≤ 0.004 | ≤ 0.05 | ≤ 0.05 | 6.2 | ≤ 0.05 | 0.1 | MIC [12]: 0.1 µg/mL; MIC [23]: 2 µg/mL
5 | CC[C@H]1OC(=O)[C@H](C)C(=O)[C@H](C)[C@@H](O[C@@H]2O[C@H](C)C[C@H](N(C)C)[C@H]2O)[C@](C)(OCC#Cc2ccc(-c3ccccn3)s2)C[C@@H](C)C(=O)[C@H](C)[C@H]2N(N)C(=O)O[C@]12C [Example 5, Compound of Formula I: R^b is H, L is -C(O)-, T is -N(W-R^d)-, W is -NH-, R^d is H, R is-(CH2)-C≡C-(5-(2-pyridyl)-2-thienyl)] | > 100 | 25 | 0.2 | 2 | 0.1 | 1.56 | 0.01 | > 100 | > 100 | 0.05 | 0.05 | 0.1 | 0.25 | 0.015 | 0.015 | ≤ 0.005 | ≤ 0.005 | 50 | 0.01 | 0.39 | MIC [13]: 0.1 µg/mL; MIC [23]: 2 µg/mL
6 | Compound of Formula II: R^b is H, R is -(CH2)-C≡C-(5-(2-pyridyl)-2-thienyl) [Example 4] | > 100 | 25 | 0.39 | 4 | 0.2 | 0.2 | 0.02 | > 100 | > 100 | 0.1 | 0.05 | 0.1 | 0.25 | ≤ 0.004 | ≤ 0.004 | 0.05 | 0.01 | 6.2 | 0.02 | 0.2 | MIC [13]: 0.2 µg/mL; MIC [23]: 4 µg/mL
